In ChEMBL document CHEMBL1139973, “Synthesis and structure-activity relationships of taxuyunnanine C derivatives as multidrug resistance modulator in MDR cancer cells” (Bioorg Med Chem Lett, 2007):

Tests used:
A2780 [1] = test: Growth inhibition of human A2780 cells; type: functional, cell-based
[2] = Growth inhibition of multidrug-resistant human 2780AD cells; type: functional, cell-based; conditions: A2780 ADR
[3] = Cytotoxicity against multidrug-resistant human 2780AD cells assessed as cell viability at 0.2 uM; type: functional; conditions: A2780 ADR, read-out: Activity
A2780 [4] = test: Cytotoxicity against human A2780 cells assessed as cell viability at 10 uM; type: functional; conditions: read-out: Activity
[5] = target: T1, ATP-dependent translocase ABCB1 (Homo sapiens, UniProt P08183); test: Inhibition of Pgp in multidrug-resistant human 2780AD cells assessed as calcein accumulation at 2.5 ug/mL relative to control; type: cell-based; design: scale not given: the % may be the effect or the level left; conditions: a2780 adr
T1 sequence (P08183 whole entry): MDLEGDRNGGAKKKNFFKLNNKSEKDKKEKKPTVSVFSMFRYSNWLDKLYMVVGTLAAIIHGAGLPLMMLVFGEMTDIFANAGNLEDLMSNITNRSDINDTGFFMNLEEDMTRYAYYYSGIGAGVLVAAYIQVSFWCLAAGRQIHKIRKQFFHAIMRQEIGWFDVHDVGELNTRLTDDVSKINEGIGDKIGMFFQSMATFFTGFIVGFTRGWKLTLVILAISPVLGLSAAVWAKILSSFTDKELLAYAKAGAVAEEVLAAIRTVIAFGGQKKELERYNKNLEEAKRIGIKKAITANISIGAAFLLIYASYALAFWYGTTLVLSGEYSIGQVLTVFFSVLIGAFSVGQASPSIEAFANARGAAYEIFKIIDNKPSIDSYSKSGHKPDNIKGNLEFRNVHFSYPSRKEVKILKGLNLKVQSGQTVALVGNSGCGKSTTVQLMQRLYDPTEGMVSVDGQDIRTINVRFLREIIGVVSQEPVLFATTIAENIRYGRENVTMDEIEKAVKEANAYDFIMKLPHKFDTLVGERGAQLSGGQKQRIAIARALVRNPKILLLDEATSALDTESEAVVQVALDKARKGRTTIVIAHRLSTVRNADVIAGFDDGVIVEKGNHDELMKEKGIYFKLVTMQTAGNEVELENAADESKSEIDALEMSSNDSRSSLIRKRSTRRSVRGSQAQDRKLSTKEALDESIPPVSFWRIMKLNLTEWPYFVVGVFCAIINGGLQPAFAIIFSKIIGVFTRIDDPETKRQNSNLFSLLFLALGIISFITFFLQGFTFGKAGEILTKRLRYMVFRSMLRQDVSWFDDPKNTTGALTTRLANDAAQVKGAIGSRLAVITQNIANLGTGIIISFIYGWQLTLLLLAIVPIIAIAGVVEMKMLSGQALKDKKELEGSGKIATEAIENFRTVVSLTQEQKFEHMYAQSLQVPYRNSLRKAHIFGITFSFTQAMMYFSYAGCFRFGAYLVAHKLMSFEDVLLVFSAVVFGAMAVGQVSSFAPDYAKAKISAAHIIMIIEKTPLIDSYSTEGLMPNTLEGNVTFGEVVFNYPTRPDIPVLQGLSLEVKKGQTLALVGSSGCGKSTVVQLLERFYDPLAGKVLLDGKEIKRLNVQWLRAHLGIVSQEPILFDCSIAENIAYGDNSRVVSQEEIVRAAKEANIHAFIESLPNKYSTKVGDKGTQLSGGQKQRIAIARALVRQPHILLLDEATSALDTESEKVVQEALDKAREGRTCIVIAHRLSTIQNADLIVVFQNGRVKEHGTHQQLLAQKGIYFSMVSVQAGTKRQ

HepG2 = test: Growth inhibition of human HepG2 cells; type: functional, cell-based
[6] = target: T1, ATP-dependent translocase ABCB1; test: Inhibition of Pgp in multidrug-resistant human 2780AD cells assessed as calcein accumulation at 25 ug/mL relative to control; type: cell-based; design: scale not given: the % may be the effect or the level left; conditions: a2780 adr
A2780 [7] = test: Cytotoxicity against human A2780 cells assessed as cell viability at 0.2 uM; type: functional; conditions: read-out: Activity
[8] = target: T1, ATP-dependent translocase ABCB1; test: Inhibition of Pgp in multidrug-resistant human 2780AD cells assessed as vincristine accumulation at 1.0 ug/mL relative to verapamil; type: cell-based; design: scale not given: the % may be the effect or the level left; conditions: a2780 adr
A2780 [9] = test: Cytotoxicity against human A2780 cells assessed as cell viability at 2 uM; type: functional; conditions: read-out: Activity
[10] = target: T1, ATP-dependent translocase ABCB1; test: Inhibition of Pgp in multidrug-resistant human 2780AD cells assessed as vincristine accumulation at 1.0 ug/mL relative to control; type: cell-based; design: scale not given: the % may be the effect or the level left; conditions: a2780 adr
WI-38 VA13 = test: Growth inhibition of human VA13 cells; type: functional, cell-based
[11] = target: T1, ATP-dependent translocase ABCB1; test: Inhibition of Pgp in multidrug-resistant human 2780AD cells assessed as vincristine accumulation at 0.1 ug/mL relative to control; type: cell-based; design: scale not given: the % may be the effect or the level left; conditions: a2780 adr
[12] = target: T1, ATP-dependent translocase ABCB1; test: Inhibition of Pgp in multidrug-resistant human 2780AD cells assessed as vincristine accumulation at 0.1 ug/mL relative to verapamil; type: cell-based; design: scale not given: the % may be the effect or the level left; conditions: a2780 adr
[13] = target: T1, ATP-dependent translocase ABCB1; test: Inhibition of Pgp in multidrug-resistant human 2780AD cells assessed as calcein accumulation at 0.25 ug/mL relative to control; type: cell-based; design: scale not given: the % may be the effect or the level left; conditions: a2780 adr
[14] = Cytotoxicity against multidrug-resistant human 2780AD cells assessed as cell viability at 10 uM; type: functional; conditions: A2780 ADR, read-out: Activity
[15] = Cytotoxicity against multidrug-resistant human 2780AD cells assessed as cell viability at 2 uM; type: functional; conditions: A2780 ADR, read-out: Activity
[16] = target: T1, ATP-dependent translocase ABCB1; test: Inhibition of Pgp in multidrug-resistant human 2780AD cells assessed as vincristine accumulation at 10 ug/mL relative to verapamil; type: cell-based; design: scale not given: the % may be the effect or the level left; conditions: a2780 adr
[17] = Growth inhibition of human WI38 cells; type: cell-based; conditions: WI-38
[18] = target: T1, ATP-dependent translocase ABCB1; test: Inhibition of Pgp in multidrug-resistant human 2780AD cells assessed as vincristine accumulation at 10 ug/mL relative to control; type: cell-based; design: scale not given: the % may be the effect or the level left; conditions: a2780 adr

Row | IC50 (A2780 [1]) | Activity [5] | IC50 (HepG2) | Activity [6] | Activity [8] | Activity [10] | Activity [11] | Activity [12] | Activity [13] | Activity [16] | Activity [18] | Structure (SMILES) | IC50 [2] | viability at 0.2 µM [3] | viability at 10 µM (A2780 [4]) | viability at 0.2 µM (A2780 [7]) | viability at 2 µM (A2780 [9]) | IC50 (WI-38 VA13) | viability at 10 µM [14] | viability at 2 µM [15] | IC50 [17]
1 | 0.0031 µM | – | – | – | – | – | – | – | – | – | – | CC[C@]1(O)C[C@H]2CN(CCc3c([nH]c4ccccc34)[C@@](C(=O)OC)(c3cc4c(cc3OC)N(C=O)[C@H]3[C@@](O)(C(=O)OC)[C@H](OC(C)=O)[C@]5(CC)C=CCN6CC[C@]43[C@@H]65)C2)C1 [VINCRISTINE] | 0.311 µM | – | – | – | – | – | – | – | –
2 | – | 86% | 216 µM | 148% | 79% | 147% | 102% | 94% | 104% | 53% | 242% | C=C1[C@@H](OC(C)=O)CC[C@@]2(C)C[C@H](OC(C)=O)C3=C(C)C[C@H](O)[C@@H]([C@@H](OC(C)=O)[C@H]12)C3(C)C | – | 101% | 20% | 97% | 95% | 80 µM | 77% | 96% | 133 µM
3 | – | – | – | – | – | – | – | – | – | – | – | CC(=O)O[C@H]1C(=O)[C@@]2(C)[C@H]([C@H](OC(=O)c3ccccc3)[C@]3(O)C[C@H](OC(=O)[C@H](O)[C@@H](NC(=O)c4ccccc4)c4ccccc4)C(C)=C1C3(C)C)[C@]1(OC(C)=O)CO[C@@H]1C[C@@H]2O [PACLITAXEL] | 183 µM | – | – | – | – | – | – | – | –
4 | 6.1 µM | 132% | 15.7 µM | 190% | 146% | 272% | 121% | 111% | 107% | 116% | 527% | C=C1[C@@H](OC(C)=O)CC[C@@]2(C)C[C@H](O)C3=C(C)C[C@H](OC(=O)/C=C/c4ccccc4)[C@@H]([C@@H](OC(C)=O)[C@H]12)C3(C)C | 8 µM | 105% | 27% | 89% | 74% | 37.4 µM | 38% | 86% | 13.5 µM
5 | 0.0057 µM | – | – | – | – | – | – | – | – | – | – | COc1cccc2c1C(=O)c1c(O)c3c(c(O)c1C2=O)C[C@@](O)(C(=O)CO)C[C@@H]3O[C@H]1C[C@H](N)[C@H](O)[C@H](C)O1 [DOXORUBICIN] | 0.298 µM | – | – | – | – | – | – | – | –
